From PMC6514812, “[^18F]Fluoroethyltriazolyl Monocyclam Derivatives as Imaging Probes for the Chemokine Receptor CXCR4” (Molecules, 2019)
Where two headings read alike, the source gives them in different places. Non-standard residues stand in square brackets, D forms with d. Residues, ends and D or L forms follow the SMILES beside them. Groups on a side chain read outwards from the residue. *: point of attachment. DOTA = O=C(O)CN1CCN(CC(=O)O)CCN(CC(=O)*)CCN(CC(=O)O)CC1; 2Nal = N[C@@H](Cc1ccc2ccccc2c1)C(=O)O; dNMeOrn = CN[C@H](CCCN)C(=O)O; 4Amb = NCc1ccc(C(=O)O)cc1

Key:
PC3-CXCR4 cells = assay: Cell-associated activity in PC3-CXCR4 cells; type: cell-based, human; conditions: 1 h
Experimental: Maximum cell-associated activity was calculated by subtracting the cell uptake of the radioactive ligand at the highest non-radioactive ligand concentration of 10 µM (which we considered to be non-specific uptake/binding) from the cell uptake at the lowest non-radioactive ligand concentration of 10^−5 µM.

CXCR4 [1] = target: T1, CXCR4 (Homo sapiens, UniProt P61073); assay: Competition binding assay vs [^68Ga]Pentixafor in PC3-CXCR4 cells
T1 construct: expressed in transfected cells; host or cells: PC3 (human prostate cancer) cells stably transduced with CXCR4
Experimental: PC3-CXCR4 cells were plated in 12-well plates at a density of 500,000 cells per well and incubated for 48 h at 37 °C/5% CO2. Prior to the binding assay the cells were incubated in fresh media and 370–555 kBq of [^68Ga]Pentixafor or [^18F]RPS-544 was added to each well. The corresponding concentration of [^68Ga]Pentixafor in each well was 100 nM, and the concentration of [^18F]RPS-544 was approximately 5 pM. Then non-radioactive ligands were added to give a final ligand concentration in the range 0.001–10,000 nM. A total of eight concentrations were studied, and each concentration was tested in triplicate. The cells were incubated for 60 min at 37 °C/5% CO2. The media was removed under suction, the cells were washed with cold PBS 1X and detached and transferred to tubes for counting in 1 M NaOH. The cells were counted in a Wizard^2 Gamma Counter (PerkinElmer, Waltham, MA, USA). Non-specific binding was subtracted, and the IC50 values were determined by assuming a simple competitive binding interaction and fitting the data to a sigmoidal Hill plot in Origin 9.0 (OriginLab, Northampton, MA, USA). Potencies are expressed as IC50 ± standard deviation (Supplemental Data, Figure S7).

CXCR4 [2] = target: T1, CXCR4; assay: Saturation binding assay in PC3-CXCR4 cells
Experimental: To determine the dissociation constants, saturation binding assays were performed in the PC3-CXCR4 cells. The cells were plated as described above, and approximately 5 nM of the radioligand was added to each well. Then the corresponding non-radioactive ligand was added to give a final concentration in the range 0.001–10,000 nM. A total of eight concentrations were tested, and each concentration was tested in triplicate. The samples were washed and counted as described above. Non-specific binding was subtracted, and Kd values were determined by performing a nonlinear one site binding curve fit with equation y = (Bmax · x)/(Kd + x). Values are expressed as Kd ± standard deviation (Supplemental Data, Figure S8).

[3] = Biodistribution in mice bearing bilateral PC3-WT/PC3-CXCR4 xenograft tumors; type: in vivo, BALB/c mice
Experimental: (§1) All animal studies were approved by the Institutional Animal Care and Use Committee of Weill Cornell Medicine (Protocol Number: 2015-0066) and were undertaken in accordance with the guidelines set forth by the USPHS Policy on Humane Care and Use of Laboratory Animals. Animals were housed under standard conditions in approved facilities with 12 h light/dark cycles. Food and water was provided ad libitum throughout the course of the studies. Hairless 6-to-8-week old male BALB/c inbred athymic nude mice (Jackson Laboratory, Bar Harbor, ME, USA) were inoculated bilaterally with 0.2 mL of a 1:1 mixture of 10^7 PC3-CXCR4 cells in PBS and Matrigel (Corning, Tewksbury, MA, USA) subcutaneously in the left shoulder and 0.2 mL of a 1:1 mixture of 10^7 PC3-WT cells in PBS and Matrigel subcutaneously in the right shoulder. Imaging and biodistribution studies were performed three weeks post-implantation, when tumors were approximately 100–300 mm^3.
(§2) For the biodistribution studies, tumor-bearing animals (n = 5/compound/time point) were injected intravenously with 50–100 μL of a 9% v/v EtOH/saline solution containing approximately 1.1 MBq of the radioligand. […] The mice were euthanized at 1 or 2 h p.i. and tissues including blood, heart, lungs, liver, small intestine, large intestine, stomach (with contents), spleen, pancreas, kidneys, muscle, bone, PC3-WT tumors, PC3-CXCR4 tumors, and tail were collected. All organs were weighed and placed in test tubes for counting in a Wizard^2 Gamma Counter (PerkinElmer, Waltham, MA, USA). For comparison, 1% injected activity standards were prepared and counted along with the tissue samples. The tails were counted to correct for any dose extravasation. Activity in each tissue was corrected for decay and for injected activity and expressed as percent injected dose per gram of tissue (%ID/g) ± standard error.

[4] = system: PC3-CXCR4 xenograft tumors; assay: as above; type: in vivo, BALB/c mice
Experimental: as §1, §2

[5] = 1 h p.i., blocked by co-injection of 5 mg/kg AMD-3100

T1 sequence (P61073 whole entry): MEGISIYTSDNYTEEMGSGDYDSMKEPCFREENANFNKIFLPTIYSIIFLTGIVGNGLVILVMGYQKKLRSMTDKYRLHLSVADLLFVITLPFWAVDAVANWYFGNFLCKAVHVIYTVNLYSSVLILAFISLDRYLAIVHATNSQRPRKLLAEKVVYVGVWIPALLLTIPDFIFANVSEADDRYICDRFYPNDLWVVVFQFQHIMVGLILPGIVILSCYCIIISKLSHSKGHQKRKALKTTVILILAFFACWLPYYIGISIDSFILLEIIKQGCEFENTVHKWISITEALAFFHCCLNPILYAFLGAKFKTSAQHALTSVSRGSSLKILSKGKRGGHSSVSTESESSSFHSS

FCCn1cc(CNCc2ccc(CN3CCCNCCNCCCNCC3)cc2)nn1 [RPS-547]
Cell-Associated Activity (PC3-CXCR4 cells): 6.7 ± 2.8 %IA | IC50 (CXCR4 [1]; vs 100 nM [^68Ga]Pentixafor, PC3-CXCR4 cells, 60 min 37 °C): 601 ± 118 nM | Hill Slope, Competitive Binding Experiment (CXCR4 [1]; vs [^68Ga]Pentixafor, value ± SD): 0.97 ± 0.14 | Kd (CXCR4 [2]; saturation binding, PC3-CXCR4 cells): 261 ± 22 nM | Hill Slope, Saturation Binding Experiment (CXCR4 [2]; value ± SD): 1.03 ± 0.08 | Blood tissue activity ([3]; 1 h p.i.): 0.28±0.06 %ID/g | Blood tissue activity [3, 5]: 0.41±0.40 %ID/g | Blood tissue activity ([3]; 2 h p.i.): 0.08±0.01 %ID/g | Bone tissue activity ([4]; 1 h p.i.): 0.52±0.04 %ID/g | Heart tissue activity ([4]; 1 h p.i.): 0.18±0.04 %ID/g | Kidneys tissue activity ([4]; 1 h p.i.): 10.73 ± 1.10 %ID/g | Large Intestine tissue activity ([4]; 1 h p.i.): 0.20±0.02 %ID/g | Liver tissue activity ([4]; 1 h p.i.): 6.59±1.00 %ID/g | Lungs tissue activity ([4]; 1 h p.i.): 0.48±0.05 %ID/g | Muscle tissue activity ([4]; 1 h p.i.): 0.14±0.01 %ID/g | PC3-CXCR4 Tumor Uptake ([4]; 1 h p.i.): 3.09 ± 0.52 %ID/g | PC3-CXCR4 Tumor-to-Tissue Ratio Blood ([4]; 1 h p.i.): 10.1 ± 0.3 | PC3-CXCR4 Tumor-to-Tissue Ratio Bone ([4]; 1 h p.i.): 5.9 ± 0.8 | PC3-CXCR4 Tumor-to-Tissue Ratio Kidneys ([4]; 1 h p.i.): 0.3 ± 0.2 | PC3-CXCR4 Tumor-to-Tissue Ratio Liver ([4]; 1 h p.i.): 0.5 ± 0.2 | PC3-CXCR4 Tumor-to-Tissue Ratio Lungs ([4]; 1 h p.i.): 6.2 ± 0.8 | PC3-CXCR4 Tumor-to-Tissue Ratio Muscle ([4]; 1 h p.i.): 20.3 ± 0.3 | PC3-CXCR4 Tumor-to-Tissue Ratio PC3-WT ([4]; 1 h p.i.): 1.9 ± 0.3 | PC3-WT tumor activity ([4]; 1 h p.i.): 1.54±0.18 %ID/g | Pancreas tissue activity ([4]; 1 h p.i.): 0.20±0.01 %ID/g | Small Intestine tissue activity ([4]; 1 h p.i.): 0.95±0.10 %ID/g | Spleen tissue activity ([4]; 1 h p.i.): 0.53±0.02 %ID/g | Stomach tissue activity ([4]; 1 h p.i.): 0.17±0.03 %ID/g | Bone tissue activity [4, 5]: 0.22±0.12 %ID/g | Heart tissue activity [4, 5]: 0.14±0.19 %ID/g | Kidneys tissue activity [4, 5]: 4.08±1.10 %ID/g | Large Intestine tissue activity [4, 5]: 0.23±0.06 %ID/g | Liver tissue activity [4, 5]: 4.13±0.50 %ID/g | Lungs tissue activity [4, 5]: 0.35±0.15 %ID/g | Muscle tissue activity [4, 5]: 0.18±0.35 %ID/g | PC3-CXCR4 tumor activity [4, 5]: 1.16±0.12 %ID/g | PC3-WT tumor activity [4, 5]: 0.86±0.10 %ID/g | Pancreas tissue activity [4, 5]: 0.22±0.04 %ID/g | Small Intestine tissue activity [4, 5]: 0.51±0.18 %ID/g | Spleen tissue activity [4, 5]: 0.12±0.03 %ID/g | Stomach tissue activity [4, 5]: 0.10±0.03 %ID/g | PC3-CXCR4 Tumor Uptake ([4]; 1 h p.i., listed as [^18F]RPS-547): 3.1 ± 0.5 %ID/g | Bone tissue activity ([4]; 2 h p.i.): 0.31±0.02 %ID/g | Heart tissue activity ([4]; 2 h p.i.): 0.08±0.01 %ID/g | Kidneys tissue activity ([4]; 2 h p.i.): 5.60±0.56 %ID/g | Large Intestine tissue activity ([4]; 2 h p.i.): 0.19±0.12 %ID/g | Liver tissue activity ([4]; 2 h p.i.): 5.18±0.27 %ID/g | Lungs tissue activity ([4]; 2 h p.i.): 0.24±0.02 %ID/g | Muscle tissue activity ([4]; 2 h p.i.): 0.09±0.02 %ID/g | PC3-CXCR4 Tumor-to-Tissue Ratio Blood ([4]; 2 h p.i.): 24.0 ± 0.2 | PC3-CXCR4 Tumor-to-Tissue Ratio Bone ([4]; 2 h p.i.): 6.3 ± 0.4 | PC3-CXCR4 Tumor-to-Tissue Ratio Kidneys ([4]; 2 h p.i.): 0.3 ± 0.1 | PC3-CXCR4 Tumor-to-Tissue Ratio Liver ([4]; 2 h p.i.): 0.4 ± 0.2 | PC3-CXCR4 Tumor-to-Tissue Ratio Lungs ([4]; 2 h p.i.): 8.2 ± 0.4 | PC3-CXCR4 Tumor-to-Tissue Ratio Muscle ([4]; 2 h p.i.): 11.0 ± 0.3 | PC3-CXCR4 Tumor-to-Tissue Ratio PC3-WT ([4]; 2 h p.i.): 2.2 ± 0.2 | PC3-CXCR4 tumor activity ([4]; 2 h p.i.): 2.02±0.10 %ID/g | PC3-WT tumor activity ([4]; 2 h p.i.): 0.86±0.13 %ID/g | Pancreas tissue activity ([4]; 2 h p.i.): 0.11±0.00 %ID/g | Small Intestine tissue activity ([4]; 2 h p.i.): 0.80±0.01 %ID/g | Spleen tissue activity ([4]; 2 h p.i.): 0.36±0.04 %ID/g | Stomach tissue activity ([4]; 2 h p.i.): 0.11±0.02 %ID/g

CN1C(=O)[C@@H](Cc2ccc(O)cc2)NC(=O)CNC(=O)[C@H](Cc2ccc3ccccc3c2)NC(=O)[C@H](CCCNC(=N)N)NC(=O)[C@H]1CCCNC(=O)c1ccc(CNC(=O)CN2CCN(CC(=O)O)CCN(CC(=O)O)CCN(CC(=O)O)CC2)cc1 (68Ga complex, metal not drawn) [Pentixafor, reference compound] (cyclo([dY][dNMeOrn]([4Amb-DOTA])R[2Nal]G))
tissue to tissue ratio at 1 h ([3]; male, BALB/c athymic nude, mouse, PC3-CXCR4 tumor and PC3-WT tumor, iv, total radioactivity, 1 h p.i., read-out: PC3-CXCR4 Tumor-to-Tissue Ratio PC3-WT): 2 ± 0.2 | tissue to tissue ratio at 2 h ([3]; male, BALB/c athymic nude, mouse, PC3-CXCR4 tumor and PC3-WT tumor, iv, total radioactivity, 2 h p.i., read-out: PC3-CXCR4 Tumor-to-Tissue Ratio PC3-WT): 2.8 ± 0.1 | tissue to tissue ratio at 1 h ([3]; male, BALB/c athymic nude, mouse, PC3-CXCR4 tumor and blood, iv, total radioactivity, 1 h p.i., read-out: PC3-CXCR4 Tumor-to-Tissue Ratio Blood): 11.4 ± 0.2 | tissue to tissue ratio at 2 h ([3]; male, BALB/c athymic nude, mouse, PC3-CXCR4 tumor and blood, iv, total radioactivity, 2 h p.i., read-out: PC3-CXCR4 Tumor-to-Tissue Ratio Blood): 31.1 ± 0.1 | tissue to tissue ratio at 1 h ([3]; male, BALB/c athymic nude, mouse, PC3-CXCR4 tumor and bone, iv, total radioactivity, 1 h p.i., read-out: PC3-CXCR4 Tumor-to-Tissue Ratio Bone): 28.7 ± 0.2 | tissue to tissue ratio at 2 h ([3]; male, BALB/c athymic nude, mouse, PC3-CXCR4 tumor and bone, iv, total radioactivity, 2 h p.i., read-out: PC3-CXCR4 Tumor-to-Tissue Ratio Bone): 47.2 ± 0.1 | tissue to tissue ratio at 1 h ([3]; male, BALB/c athymic nude, mouse, PC3-CXCR4 tumor and kidneys, iv, total radioactivity, 1 h p.i., read-out: PC3-CXCR4 Tumor-to-Tissue Ratio Kidneys): 4 ± 0.2 | tissue to tissue ratio at 2 h ([3]; male, BALB/c athymic nude, mouse, PC3-CXCR4 tumor and kidneys, iv, total radioactivity, 2 h p.i., read-out: PC3-CXCR4 Tumor-to-Tissue Ratio Kidneys): 5.3 ± 0.1 | tissue to tissue ratio at 1 h ([3]; male, BALB/c athymic nude, mouse, PC3-CXCR4 tumor and liver, iv, total radioactivity, 1 h p.i., read-out: PC3-CXCR4 Tumor-to-Tissue Ratio Liver): 10.8 ± 0.2 | tissue to tissue ratio at 2 h ([3]; male, BALB/c athymic nude, mouse, PC3-CXCR4 tumor and liver, iv, total radioactivity, 2 h p.i., read-out: PC3-CXCR4 Tumor-to-Tissue Ratio Liver): 10.8 ± 0.1 | tissue to tissue ratio at 1 h ([3]; male, BALB/c athymic nude, mouse, PC3-CXCR4 tumor and lungs, iv, total radioactivity, 1 h p.i., read-out: PC3-CXCR4 Tumor-to-Tissue Ratio Lungs): 11.8 ± 0.2 | tissue to tissue ratio at 2 h ([3]; male, BALB/c athymic nude, mouse, PC3-CXCR4 tumor and lungs, iv, total radioactivity, 2 h p.i., read-out: PC3-CXCR4 Tumor-to-Tissue Ratio Lungs): 17.1 ± 0.1 | tissue to tissue ratio at 1 h ([3]; male, BALB/c athymic nude, mouse, PC3-CXCR4 tumor and muscle, iv, total radioactivity, 1 h p.i., read-out: PC3-CXCR4 Tumor-to-Tissue Ratio Muscle): 56.1 ± 0.2 | tissue to tissue ratio at 2 h ([3]; male, BALB/c athymic nude, mouse, PC3-CXCR4 tumor and muscle, iv, total radioactivity, 2 h p.i., read-out: PC3-CXCR4 Tumor-to-Tissue Ratio Muscle): 101.2 ± 0.1 | tissue uptake at 1 h ([3]; male, BALB/c athymic nude, mouse, PC3-CXCR4 tumor, iv, total radioactivity, 1 h p.i., read-out: Maximum PC3-CXCR4 tumor activity): 14.6 ± 2.7 %ID/g | PC3-CXCR4 Tumor-to-Tissue Ratio Blood ([4]; 2 h p.i.): 32.1 ± 0.1 | PC3-CXCR4 ratio to all normal tissue except kidneys ([4]; 2 h p.i.): greater than 10
